Data from patent US6579556B2, “Ambient stable beverage” (Lipton, division of Conopco, Inc., priority 2000, dated 2003).
Converted amounts (≈) assume the structure as drawn.

What was measured:
Type in all cases: cell-based
[1] = test system: yeast Saccharomyces cerevisiae X2180-1B; assay: Fungicidal activity / MIC at 50° C. versus 30° C., yeast survival in YEPD broth pH 3.4; settings: for MIC: Saccharomyces cerevisiae, read-out: MIC50; for MIC / MIC50: minimum inhibitory concentration; for fungicidal activity when heated to 50° C. / MIC / MIC50: 50° C.; for Importance: rating as pasteurisation adjunct
Procedure: In the table the minimum inhibitory concentration (MIC) is given for each compound as well as the molecular weight (M.W.), the logPoct and a rating of its importance. […] The logPoct, that is the logarithm of the partition coefficient of the relevant compound in octanol and thus a measure of its […], was determined using […]™ software from the CHEMOFFICE ULRA ENHANCED 2000™ software package (version 5.5) that is commercially available from CambridgeSoft.
(§1) YEPD contained glucose, 20 g/l, peptone 20 g/l and yeast extract 10 g/l. Rows of 30 ml tubes containing 10 ml YEPD, pH 3.4, were equilibrated at the required temperature for 7 minutes in a water bath, before inoculation with 10^4 cells/ml of the yeast Saccharomyces cerevisiae X2180-1B. Tubes were held at temperature for 10 minutes before being cooled rapidly in cold water for 5 minutes. Tubes were then incubated for 48 hours at 25° C. to allow surviving yeasts to grow out, and form discrete colonies.
as §1, §1, §1

[2] = test system: yeast Saccharomyces cerevisiae X2180-1B; assay: Ready to Drink tea experiments, yeast growth after heat + pasteurisation adjunct; settings: 0-200 ppm, OD 600 nm at 14 days; for effect of heat+pasteurisation adjunct on yeast growth: Ready to Drink tea 0.14% tea pH 3.4, held at temperature 2 minutes; for effect of pasteurisation adjunct at low temperature on yeast growth: Ready to Drink tea 0.14% tea pH 3.4, low temperature
Procedure: Rows of 30 ml tubes containing 10 ml RTD tea, pH 3.4, were equilibrated at the required temperature for 7 minutes in a water bath, before inoculation with 10^4 cells/ml of the yeast Saccharomyces cerevisiae […]-1B. Tubes were held at temperature for 2 minutes before being cooled rapidly in cold water for 5 minutes. Tubes were then incubated for 14 days at 25° C. to allow surviving yeasts to grow out. At 14 days growth was measured by optical density at 600 nm in x11 diluted samples. […] Rows of 30 ml tubes containing 10 ml RTD tea, pH 3.4, were equilibrated at the required temperature for 7 minutes in a water bath, before inoculation with 10^4 cells/ml of the yeast Saccharomyces cerevisiae […]-1B. Tubes were held at temperature for 2 minutes before being cooled rapidly in cold water for 5 minutes. Tubes were then incubated for 14 days at 25° C. to allow surviving yeasts to grow out. At 14 days growth was measured by optical density at 600 nm in x11 diluted samples. […] Rows of 30 ml tubes containing 10 ml RTD tea, pH 3.4, were equilibrated at the required temperature for 7 minutes in a water bath, before inoculation with 10^4 cells/ml of the yeast Saccharomyces cerevisiae […]-1B. Tubes were held at temperature for 2 minutes before being cooled rapidly in cold water for 5 minutes. Tubes were then incubated for 14 days at 25° C. to allow surviving yeasts to grow out. At 14 days growth was measured by optical density at 600 nm in x11 diluted samples. […] Rows of 30 ml tubes containing 10 ml RTD tea, pH 3.4, were equilibrated at the required temperature for 7 minutes in a water bath, before inoculation with 10^4 cells/ml of the yeast Saccharomyces cerevisiae […]-1B. Tubes were held at temperature for 2 minutes before being cooled rapidly in cold water for 5 minutes. Tubes were then incubated for 14 days at 25° C. to allow surviving yeasts to grow out. At 14 days growth was measured by optical density at 600 nm in x11 diluted samples. […] Rows of 30 ml tubes containing 10 ml RTD tea, pH 3.4, were equilibrated at the required temperature for 7 minutes in a water bath, before inoculation with 10^4 cells/ml of the yeast Saccharomyces cerevisiae […]-1B. Tubes were held at temperature for 2 minutes before being cooled rapidly in cold water for 5 minutes. Tubes were then incubated for 14 days at 25° C. to allow surviving yeasts to grow out. At 14 days growth was measured by optical density at 600 nm in x11 diluted samples. […] Rows of 30 ml tubes containing 10 ml RTD tea, pH 3.4, were equilibrated at the required temperature for 7 minutes in a water bath, before inoculation with 10^4 cells/ml of the yeast Saccharomyces cerevisiae […]-1B. Tubes were held at temperature for 2 minutes before being cooled rapidly in cold water for 5 minutes. Tubes were then incubated for 14 days at 25° C. to allow surviving yeasts to grow out. At 14 days growth was measured by optical density at 600 nm in x11 diluted samples. […] Rows of 30 ml tubes containing 10 ml RTD tea, pH 3.4, were equilibrated at the required temperature for 7 minutes in a water bath, before inoculation with 10^4 cells/ml of the yeast Saccharomyces cerevisiae […]-1B. Tubes were held at temperature for 2 minutes before being cooled rapidly in cold water for 5 minutes. Tubes were then incubated for 14 days at 25° C. to allow surviving yeasts to grow out. At 14 days growth was measured by optical density at 600 nm in x11 diluted samples. […] Rows of 30 ml tubes containing 10 ml RTD tea, pH 3.4, were equilibrated at the required temperature for 7 minutes in a water bath, before inoculation with 10^4 cells/ml of the yeast Saccharomyces cerevisiae […]-1B. Tubes were held at temperature for 2 minutes before being cooled rapidly in cold water for 5 minutes. Tubes were then incubated for 14 days at 25° C. to allow surviving yeasts to grow out. At 14 days growth was measured by optical density at […] in x11 diluted samples.

[3] = test system: bacteria, Gluconobacter sp. 222; assay: Bacteria experiments, growth after heat + pasteurisation adjunct; settings: 0-100 ppm, growth measured visually at 14 days; for effect of heat+pasteurisation adjunct on bacteria: Ready to Drink tea or synthetic soft drink pH 3.4, 2 minutes at temperature; for effect of pasteurisation adjunct at low temperature on growth: Ready to Drink tea or synthetic soft drink pH 3.4, low temperature
Procedure: Rows of 30 ml tubes containing 10 ml soft drink, pH 3.4, were equilibrated at the required temperature for 7 minutes in a water bath, before inoculation with 10^4 cells/ml of the bacteria, Gluconobacter sp. 222. Tubes were held at temperature for 2 minutes before being cooled rapidly in cold water for 5 minutes. Tubes were then incubated for 14 days at 25° C. to allow surviving bacteria to grow out. At 14 days growth was measured visually.

Structure (SMILES) | fungicidal activity at 30° C. [1] | fungicidal activity when heated to 50° C. [1] | MIC [1] | Importance [1] | effect of heat+pasteurisation adjunct on yeast growth [2] | effect of pasteurisation adjunct at low temperature on yeast growth [2] | effect of heat+pasteurisation adjunct on bacteria [3] | effect of pasteurisation adjunct at low temperature on growth [3] | MIC50 [1] | MIC50 ([1]; given as ppm)
CCCCCCCCCCOC(C)=O [Decyl acetate] | no fungicidal activity | significant fungicidal activity | 1000 µM | High (High effects compounds, most preferred, generally showed at least a 5 fold decrease in MIC, minimum inhibitory concentration at 50 °C compared with 30° C.) | remarkable combined synergistic effect | little effect | remarkable combined synergistic effect | little effect | – | –
CCCCCCCC=CC(=O)OCC [Ethyl 2-decenoate] | – | – | 1000 µM (≈ 198 µg/mL) | High (High effects compounds, most preferred, generally showed at least a 5 fold decrease in MIC, minimum inhibitory concentration at 50 °C compared with 30° C.) | remarkable combined synergistic effect | little effect | – | – | – | –
CC(=O)OC/C=C(\C)CCC=C(C)C [Geranyl acetate] | – | – | 1000 µM | High (High effects compounds, most preferred, generally showed at least a 5 fold decrease in MIC, minimum inhibitory concentration at 50 °C compared with 30° C.) | remarkable combined synergistic effect | little effect | – | – | – | –
CC(=O)CC/C=C(\C)CCC=C(C)C [Geranylacetone] | – | – | 500 µM (≈ 97.2 µg/mL) | High (High effects compounds, most preferred, generally showed at least a 5 fold decrease in MIC, minimum inhibitory concentration at 50 °C compared with 30° C.) | remarkable combined synergistic effect | little effect | – | – | – | –
CCCCCCCCCCCC(=O)O [Lauric acid] | no fungicidal activity | significant fungicidal activity | – | High (High effects compounds, most preferred, generally showed at least a 5 fold decrease in MIC, minimum inhibitory concentration at 50 °C compared with 30° C.) | remarkable combined synergistic effect | little effect | remarkable combined synergistic effect | little effect | – | –
CCCCCCCCCCCCO [Lauric alcohol] | – | – | – | High (High effects compounds, most preferred, generally showed at least a 5 fold decrease in MIC, minimum inhibitory concentration at 50 °C compared with 30° C.) | remarkable combined synergistic effect | little effect | – | – | 0.1 mM (≈ 18.6 µg/mL) | 18.6 ppm
CCCCCCCCCCCC=O [Lauric aldehyde] | – | – | – | High (High effects compounds, most preferred, generally showed at least a 5 fold decrease in MIC, minimum inhibitory concentration at 50 °C compared with 30° C.) | remarkable combined synergistic effect | little effect | – | – | 0.2 mM (≈ 36.9 µg/mL) | 36 ppm
